Test results taken from PMC5441580, “GPR40 partial agonist MK-2305 lower fasting glucose in the Goto Kakizaki rat via suppression of endogenous glucose production” (PLoS ONE, 2017).
Values joined by “and” are separate entries in the source; they are usually repeats but may differ in a detail not shown here. Identical values can stand only once.

Assays:
GK rats [1] = test: endogenous glucose production in vivo, 2H/13C dual tracer, acute treatment, GK rats; set-up: species or system rat
Procedure: (§1) To evaluate whether MK-2305 treatment produced an effect on EGP in vivo, a ^2H/^13C dual tracer approach was used to calculate EGP and its contributing sources. On the day of the study, GK rats were bled via tail snip, and blood glucose was measured via glucometer. Ambient glucose was measured at 8 A.M. and used to sort animals into treatment groups (n = 8 per group). 0.9% NaCl salinated D2O (Sigma-Aldrich, St. Louis, MO) was administered to all animals via IP injection at dose volume of 20 ml/kg. Animals were then placed in clean cages and food was removed. After a 5 hour fast, blood glucose was measured and animals were dosed PO with MK-2305 at 10 mg/kg (5 ml/kg) or vehicle (0.5% methylcellulose) immediately followed by 50 mg/kg [U-^13C] glucose (Sigma-Aldrich) IP at 5 ml/kg. Blood was collected via tail snip at time points from 60–150 min post treatment to measure blood glucose as well as endogenous (^12C-glucose) and exogenous (^13C-glucose) via GCMS. Following the last tail blood collection, rats were anesthetized with isoflurane and cardiac blood was collected into K2EDTA tubes (Becton, Dickinson and Co., Franklin Lakes, NJ).
(§2) The serially collected blood samples were analyzed for ^13C-glucose enrichment using GC-MS analysis. The % ^13C glucose enrichments were then combined with the total glucose readings to calculate the concentration of ^13C-glucose, and these values were modeled with a two-compartment model of whole body glucose metabolism to calculate the average EGP for the period from 0–150 minutes.
(§3) Terminal blood samples were analyzed for relative ^2H enrichment in plasma glucose using the monoacetone glucose method. Briefly, samples were extracted with 70% perchloric acid and centrifuged at 25,000 rcf for 10 min at 4°C. The supernatant was collected and the pH was adjusted to 6–8 using KOH. The samples were then lyophilized overnight. To convert plasma glucose to monoacetone glucose (MAG), acetone and concentrated sulfuric acid were added to the lyophilized samples and stirred for 4 hours at room temperature. Water was then added and the pH adjusted to 2.0 with 3M Na2CO3. Samples were stirred moderately for 18 hours at room temperature, the pH was adjusted to 7 with 3M Na2CO3, and the samples were completely dried by speed vacuum concentration. The resulting MAG samples were then extracted in hot ethyl acetate, dried overnight under a stream of N2 gas, purified using Discovery DSC-18 SPE columns (6 ml, 1 g bed weight), and freeze dried. Purified MAG samples were solubilized in 180 μl 90% acetonitrile for ^2H NMR analysis which was performed using the lock channel of a 950 MHz Bruker NMR spectrometer (David H Murdock Research Institute, Kannapolis, NC). Acquisition parameters were as follows: 90° pulse, D1 = 1 s, ^1H broadband decoupling, NS = 3600 averages, acquisition time ~ 1 hr. The ^2H NMR spectra of the MAG samples were then analyzed using in–house developed Matlab (The Mathworks Inc, Natick, MA) to model the NMR peaks with a Lorentzian line shape, and the results were used to calculate integrals for each of the seven NMR resonances in the MAG spectrum. Peaks 2, 5, and 6s were then used to calculate the relative sources of EGP (i.e. gluconeogenesis from TCA cycle substrates, gluconeogenesis from triose phosphates, and glycogenolysis) and these values were combined with the total EGP measurement to calculate absolute fluxes of glucose production.

[2] = plasma exposure of the compounds on day 14 of the chronic study; format: in vivo, rat; conditions: day 14, similar at fed and fasted time points, GK rats
Procedure: At the start of the study, fed glucose was measured at 8 A.M., and animals were selected and sorted into treatment groups based on ambient glucose (n = 10/male GK group, n = 6/male WKY control group). Animals were then placed on diet (LabDiet # 5001) that contained, or was devoid of, compound at the daily doses indicated. Fed blood glucose, food intake, and body weights were determined on days 0, 1, 3, 7, and 14 of study at 8 A.M. On days 7 and 14, food was removed for 5 h and plasma glucose was measured. Percent inhibitions were calculated as the percent reduction of blood glucose from the average value for vehicle controls. On day 14, blood was collected from the tail vein (20 μl) after the morning glucose measurement and after 5 h fast from a subset of n = 3 rats per treatment group to determine the ambient and fasted exposure of the compounds in circulation. The blood was stored at 4°C in 0.1 M sodium monocitrate for subsequent analysis. Animals were then re-fed their respective diet treatments. On day 20 of treatment at 8 A.M., blood glucose was measured and then animals were euthanized via CO2 asphyxiation. Blood and liver tissue were sampled, processed, and stored at -80°C until analysis.

GK rats [3] = test: endogenous glucose production in vivo, 2H/13C dual tracer, chronic treatment, GK rats; set-up: species or system rat; conditions: 10 mg/kg, individual animals
Procedure: as §1, §2
as §3, with “Purified MAG samples were solubilized in 180 μl 90% acetonitrile for ^2H NMR analysis which was performed using the lock channel of a 950 MHz Bruker NMR spectrometer (David H Murdock Research Institute, Kannapolis, NC). Acquisition parameters were as follows: 90° pulse, D1 = 1 s, ^1H broadband decoupling, NS = 3600 averages, acquisition time ~ 1 hr.” left out, “Peaks 2, 5, and 6s were then used to calculate the relative sources of EGP (i.e. gluconeogenesis from TCA cycle substrates, gluconeogenesis from triose phosphates, and glycogenolysis) and these values were combined with the total EGP measurement to calculate absolute fluxes of glucose production.” left out

Rat PPARγ = biological target: T1, Rat PPARγ (Rattus norvegicus, UniProt O88275); test: cell-based nuclear receptor profiling (Indigo Biosciences), PPARγ
T1 sequence (O88275 238-505 limits assumed): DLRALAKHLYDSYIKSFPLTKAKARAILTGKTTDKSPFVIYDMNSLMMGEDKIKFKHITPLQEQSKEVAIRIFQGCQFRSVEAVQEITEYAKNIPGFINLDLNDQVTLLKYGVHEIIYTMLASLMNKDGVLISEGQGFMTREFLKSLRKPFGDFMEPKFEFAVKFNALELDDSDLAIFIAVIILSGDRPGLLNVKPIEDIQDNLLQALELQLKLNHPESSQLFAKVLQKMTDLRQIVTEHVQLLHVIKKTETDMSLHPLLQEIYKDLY
Procedure: Rat PPARα, PPARδ, and PPARγ activities were determined by Indigo Biosciences (State College, PA) cell-based nuclear receptor profiling service.

[4] = acute treatment, 10 mg/kg, individual animals

SMILES: O=C1NC(=O)C(C2CCOc3cc(Oc4ccc(C(F)(F)F)cc4Cl)ccc32)S1 (centres unmarked) [MK-2305]
- Glucose Production, GNG Glycerol (GK rats [1]; [4]): 3.608 µmol/kg/min and 6.69 µmol/kg/min and 9.73 µmol/kg/min and 6.819 µmol/kg/min and 7.18 µmol/kg/min and 7.314 µmol/kg/min
- Glucose Production, GNG TCA (GK rats [1]; [4]): 22.6827 µmol/kg/min and 24.6101 µmol/kg/min and 42.0826 µmol/kg/min and 20.0832 µmol/kg/min and 26.1824 µmol/kg/min and 20.2011 µmol/kg/min
- Glucose Production, GNG Total (GK rats [1]; [4]): 26.2902 µmol/kg/min and 31.3005 µmol/kg/min and 51.8129 µmol/kg/min and 26.902 µmol/kg/min and 33.3626 µmol/kg/min and 27.5151 µmol/kg/min
- Glucose Production, Glycogenolysis (GK rats [1]; [4]): 12.8051 µmol/kg/min and 15.6084 µmol/kg/min and 16.1238 µmol/kg/min and 13.6282 µmol/kg/min and 9.977 µmol/kg/min and 16.0296 µmol/kg/min
- effect on EGP derived from glycogenolysis (GK rats [1]; acute, 10 mg/kg PO): did not acutely affect
- EGP from gluconeogenic substrates entering as triose phosphates (GK rats [1]; acute, 10 mg/kg PO, mean ± SEM, vehicle 8.82 ± 0.81, p < 0.05): 6.90 ± 0.80 µmol/kg/min
- EGP from gluconeogenic substrates entering at the TCA cycle (GK rats [1]; acute, 10 mg/kg PO, mean ± SEM, vehicle 43.2 ± 4.17, p < 0.01): 26.0 ± 3.36 µmol/kg/min
- total EGP (GK rats [1]; acute, 10 mg/kg PO, mean ± SEM, vehicle 52.0 ± 4.82, p < 0.05): 32.9 ± 3.95 µmol/kg/min
- plasma exposure ([2]; 10 mg/kg in feed): ~ 15 μM
- plasma exposure ([2]; 30 mg/kg in feed): ~ 39 μM
- Glucose Production, GNG Glycerol (GK rats [3]): 9.192 µmol/kg/min and 6.083 µmol/kg/min and 7.998 µmol/kg/min and 7.217 µmol/kg/min and 7.842 µmol/kg/min and 8.659 µmol/kg/min and 3.467 µmol/kg/min and 8.678 µmol/kg/min
- Glucose Production, GNG TCA (GK rats [3]): 36.7882 µmol/kg/min and 38.5819 µmol/kg/min and 33.1225 µmol/kg/min and 31.7162 µmol/kg/min and 37.3311 µmol/kg/min and 31.203 µmol/kg/min and 37.9138 µmol/kg/min and 30.2175 µmol/kg/min
- Glucose Production, GNG Total (GK rats [3]): 45.9798 µmol/kg/min and 44.6651 µmol/kg/min and 41.1202 µmol/kg/min and 38.9333 µmol/kg/min and 45.1729 µmol/kg/min and 39.8625 µmol/kg/min and 41.3808 µmol/kg/min and 38.8959 µmol/kg/min
- Glucose Production, Glycogenolysis (GK rats [3]): 21.2266 µmol/kg/min and 17.3215 µmol/kg/min and 19.9927 µmol/kg/min and 20.4645 µmol/kg/min and 22.2628 µmol/kg/min and 19.9186 µmol/kg/min and 23.4568 µmol/kg/min and 19.0453 µmol/kg/min
- EC50 (Rat PPARγ): > 10 µM
- % Activation (Rat PPARγ; @ 10 μM): 3.1 @ 10 μM % and 3.1%
- % Effect (Rat PPARγ; Dose 0.309 nM): -0.11%
- % Effect (Rat PPARγ; Dose 0.981 nM): -0.11%
- % Effect (Rat PPARγ; Dose 3.11 nM): -0.19%
- % Effect (Rat PPARγ; Dose 9.85 nM): -0.3%
- % Effect (Rat PPARγ; Dose 31.2 nM): -0.25%
- % Effect (Rat PPARγ; Dose 99 nM): -0.14%
- % Effect (Rat PPARγ; Dose 314 nM): -0.37%
- % Effect (Rat PPARγ; Dose 995 nM): -0.13%
- % Effect (Rat PPARγ; Dose 3155 nM): 0.6%
- % Effect (Rat PPARγ; Dose 10000 nM): 3.1%
